Assay results as given in EP2892896B1 (Bristol-Myers Squibb Company, priority 2012, dated 2014).

Target: T1, human melanin concentrating hormone receptor (MCHR1) (Homo sapiens, UniProt Q99705, A5T/E4Q)
T1 construct: expressed in transfected cells; host or cells: HEK-293 (stably transfected), membranes
Test: Radioligand binding assay for assessment of MCHR1 activity
Details: membranes from HEK-293 cells expressing a mutated (E4Q, A5T) hMCHR1 receptor; competition with 0.06 - 0.1 nM [Phe13, [125I]Tyr19]-MCH; 90 min
Protocol: Radioligand Binding Assay for Assessment of MCHR1 Activity
An in vitro binding assay was used to determine the compound Ki value or ability to antagonize binding of a peptide agonist to the human melanin concentrating hormone receptor (MCHR1). […] Binding experiments were carried out with 0.5-1.0 µg of membrane protein incubated in a total of 0.2 mL in 25 mM HEPES (pH 7.4) with 10 mM MgCl2, 2 mM EGTA, and 0.1% BSA (Binding Buffer) for 90 min. For competition binding assays, reactions were carried out in the presence of with 0.06 - 0.1 nM [Phe^13, [^125I]Tyr^19]-MCH and increasing concentrations of unlabeled test molecules. […] Filters were dried, 0.05 mL MicroScint 20 was added to each well and radioactivity was subsequently quantified by scintillation counting on a TOPCOUNT® microplate scintillation counter (Packard). Inhibitory constants were determined by nonlinear least squares analysis using a four parameter logistic equation.

T1 sequence (Q99705 whole entry E4Q/A5T): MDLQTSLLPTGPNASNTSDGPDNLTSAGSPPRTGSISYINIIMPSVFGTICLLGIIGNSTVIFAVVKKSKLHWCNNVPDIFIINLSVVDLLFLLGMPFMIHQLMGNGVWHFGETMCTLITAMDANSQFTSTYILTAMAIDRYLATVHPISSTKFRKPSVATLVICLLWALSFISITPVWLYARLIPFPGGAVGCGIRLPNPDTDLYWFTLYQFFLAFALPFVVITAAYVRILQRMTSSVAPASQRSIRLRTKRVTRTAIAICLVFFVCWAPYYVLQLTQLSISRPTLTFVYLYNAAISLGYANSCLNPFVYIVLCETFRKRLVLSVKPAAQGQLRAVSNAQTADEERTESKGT

SMILES	Ki [nM]
COc1cc(N2CCC(Oc3ccc(OC(F)(F)F)cc3)C2=O)ccc1OCC(C)(C)O (centres unmarked) [Example 14]	134
COc1cc(N2CCC(Oc3ccc(-c4ccccc4F)c(F)c3)C2=O)ccc1OCC(C)(C)O (centres unmarked) [Example 31]	34
COc1cc(N2CCC(Oc3ccc(-c4ccncc4Cl)cc3)C2=O)ccc1OCC(C)(C)O (centres unmarked) [Example 32]	634
CCS(=O)(=O)C[C@H](O)COc1ccc(N2CCC(Oc3ccc(OC(F)(F)F)cc3)C2=O)cc1OC (some centres unmarked) [Example 50]	197
CCS(=O)(=O)C[C@@H](O)COc1ccc(N2CCC(Oc3ccc(C(F)(F)F)cc3)C2=O)cc1OC (some centres unmarked) [Example 53]	109
COc1cc(N2CCC(Oc3ccc(C4CC4)cc3)C2=O)ccc1OC[C@H](O)C1CC1 (some centres unmarked) [Example 46]	12
COc1cc(N2CCC(C)(Oc3ccc(OC(F)(F)F)cc3)C2=O)ccc1OCC(C)(C)O (centres unmarked) [Example 13, 1-(4-(2-Hydroxy-2-methylpropoxy)-3-methoxyphenyl)-3-methyl-3-(4-(trifluoromethoxy)phenoxy)pyrrolidin-2-one]	473
COc1cc(N2CCC(Oc3ccc(-c4ccccc4C)cc3)C2=O)ccc1OCC(C)(C)O (centres unmarked) [Example 26]	81
COc1ccc(OC2CCN(c3ccc(OCC(C)(C)O)c(OC)c3)C2=O)cc1 (centres unmarked) [Example 5]	662
COc1cc(N2CCC(Oc3ccc(-c4ccccc4)cc3)C2=O)ccc1OCC(C)(C)O (centres unmarked) [Example 19]	4
COc1cccc(OC2CCN(c3ccc(OCC(C)(C)O)c(OC)c3)C2=O)c1 (centres unmarked) [Example 4]	218
COc1cc(N2CC[C@@H](Oc3ccc(-c4ccccc4)cc3)C2=O)ccc1OC[C@H](O)C1CC1 [Example 44]	4
COc1cc(N2CCC(Oc3ccc(Br)c(Cl)c3)C2=O)ccc1OCC(C)(C)O (centres unmarked) [Example 41]	522
COc1cc(N2CCC(Oc3ccc(-n4cccc4)cc3)C2=O)ccc1OCC(C)(C)O (centres unmarked) [Example 38]	5
COc1cc(N2CCC(Oc3cccc(Cl)c3)C2=O)ccc1OCC(C)(C)O (centres unmarked) [Example 2]	10000
COc1cc(N2CCC(Oc3ccc(-c4ccccc4)cc3)C2=O)ccc1OCC1(O)CC(F)(F)C1 (centres unmarked) [Example 47]	7
COc1cc(N2CC[C@H](Oc3ccc(-c4ccccc4)cc3)C2=O)ccc1OCC(C)(C)O [Example 20]	493
COc1cc(N2CC[C@H](Oc3ccc(OC(F)(F)F)cc3)C2=O)ccc1OCC(C)(C)O [Example 16]	2340
COc1cc(N2CCC(Oc3ccc(-c4cccnc4)cc3)C2=O)ccc1OCC(C)(C)O (centres unmarked) [Example 36]	67
COc1cc(N2CC[C@H](Oc3ccc(-c4ccccc4)cc3)C2=O)ccc1OC[C@H](O)C1CC1 [Example 45]	1060
COc1cc(N2CCC(Oc3ccc(-c4ccccc4)c(F)c3)C2=O)ccc1OCC(C)(C)O (centres unmarked) [Example 30]	12
COc1cc(N2CCC(Oc3ccc(-c4ccncc4)cc3)C2=O)ccc1OCC(C)(C)O (centres unmarked) [Example 37]	73
COc1cc(N2CC[C@@H](Oc3ccc(C(F)(F)F)cc3)C2=O)ccc1OCC(C)(C)O (single isomer, unassigned) [Example 9]	23
COc1cc(N2CC[C@H](Oc3ccc(C(F)(F)F)cc3)C2=O)ccc1OCC(C)(C)O (single isomer, unassigned) [Example 10]	6000
COc1cc(N2CCC(Oc3cccc(OC(F)(F)F)c3)C2=O)ccc1OCC(C)(C)O (centres unmarked) [Example 11]	5000
COc1cc(N2CCC(Oc3ccc(-c4ccccc4F)cc3)C2=O)ccc1OCC(C)(C)O (centres unmarked) [Example 24, 3-(2'-Fluorobiphenyl-4-yloxy)-1-(4-(2-hydroxy-2-methylpropoxy)-3-methoxyphenyl)pyrrolidin-2-one]	9
COc1cc(N2CCC(Oc3ccc(Cl)cc3)C2=O)ccc1OCC(C)(C)O (centres unmarked) [Example 3]	2060
COc1cc(N2CCC(Oc3ccc(C(F)(F)F)cc3)C2=O)ccc1OCC(C)(C)O (centres unmarked) [Example 8]	34
COc1ccc(N2CCC(Oc3ccc(-c4ccccc4)cc3)C2=O)cc1OC (centres unmarked) [Example 43]	19
COc1cc(N2CCC(Oc3ccccc3Cl)C2=O)ccc1OCC(C)(C)O (centres unmarked) [Example 1, 3-(2-Chlorophenoxy)-1-(4-(2-hydroxy-2-methylpropoxy)-3-methoxyphenyl)pyrrolidin-2-one]	5000

More lines, now with the values ahead:

Ki [nM]	SMILES
4	Cc1cc(N2CCC(Oc3ccc(-c4ccccc4)cc3)C2=O)ccc1OCC(C)(C)O (centres unmarked) [Example 80]
65	COc1cc(N2CCC(Oc3ccc(OC(F)(F)F)cc3)C2=O)ccc1OC[C@H](O)CS(C)(=O)=O (some centres unmarked) [Example 61]
40	Cc1cc(N2CCC(Oc3ccc(OC(F)(F)F)cc3)C2=O)ccc1OCCS(C)(=O)=O (centres unmarked) [Example 103]
636	Cc1cc(N2CC[C@@H](Oc3ccc(-c4ccccc4)cc3)C2=O)ccc1OCCS(C)(=O)=O (single isomer, unassigned) [Example 106]
22	Cc1cc(N2CCC(Oc3ccc(-c4ccc(F)cc4)cc3)C2=O)ccc1OC[C@H](O)CS(C)(=O)=O (some centres unmarked) [Example 96]
5000	Cc1cc(N2CCC(Oc3ccc(C(F)(F)F)cn3)C2=O)ccc1OCC(C)(C)O (centres unmarked) [Example 86]
17	COc1cc(N2CCC(Oc3ccc(C4CC4)cc3)C2=O)ccc1OC[C@H](O)CS(C)(=O)=O (some centres unmarked) [Example 60]
19	Cc1cc(N2CCC(Oc3ccc(-c4ccc(F)cc4)cc3)C2=O)ccc1OC[C@@H](O)CS(C)(=O)=O (some centres unmarked) [Example 99]
2	COc1cc(N2CCC(Oc3ccc(-c4ccccc4)cc3)C2=O)ccc1OCC1(O)CCS(=O)(=O)CC1 (centres unmarked) [Example 57]
2	COc1cc(N2CCC(Oc3ccc(-c4ccccc4)cc3)C2=O)ccc1OCCS(C)(=O)=O (centres unmarked) [Example 66]
7	CCS(=O)(=O)C[C@@H](O)COc1ccc(N2CCC(Oc3ccc(-c4ccccc4)cc3)C2=O)cc1C (some centres unmarked) [Example 91]
22	Cc1cc(N2CCC(Oc3ccc(CC(F)(F)F)cc3)C2=O)ccc1OCC(C)(C)O (centres unmarked) [Example 81]
38	CCS(=O)(=O)C[C@@H](O)COc1ccc(N2CCC(Oc3ccc(-c4cccc(F)c4)cc3)C2=O)cc1OC (some centres unmarked) [Example 55]
5	Cc1cc(N2CC[C@@H](Oc3ccc(C4CC4)cc3)C2=O)ccc1OCC(C)(C)O [Example 84]
21	CCS(=O)(=O)C[C@@H](O)COc1ccc(N2CCC(Oc3ccc(-c4ccc(F)cc4)cc3)C2=O)cc1OC (some centres unmarked) [Example 54]
42	Cc1cc(N2CCC(Oc3ccc(C4CC4)cc3)C2=O)ccc1OC[C@@H](O)CS(C)(=O)=O (some centres unmarked) [Example 100]
3	Cc1cc(N2CC[C@@H](Oc3ccc(-c4ccc(F)cc4)cc3)C2=O)ccc1OCCS(C)(=O)=O [Example 110]
6	Cc1cc(N2CCC(Oc3ccc(-c4ccccc4)cc3)C2=O)ccc1OCC[S+](C)[O-] (centres unmarked) [Example 102]

Ki [nM]	SMILES
31	Cc1cc(N2CCC(Oc3ccc(C(F)(F)F)cc3)C2=O)ccc1OCCS(C)(=O)=O (centres unmarked) [Example 112]
10	Cc1cc(N2CCC(Oc3ccc(-c4ccccc4)cc3)C2=O)ccc1OCC1(O)CC(F)(F)C1 (centres unmarked) [Example 90]
3	COc1cc(N2CC=C(Oc3ccc(-c4ccccc4)cc3)C2=O)ccc1OCC(C)(C)O [Example 122]
9	Cc1cc(N2CC=C(Oc3ccc(C4CC4)cc3)C2=O)ccc1OCC(C)(C)O [Example 118]
7	CS(=O)(=O)CCOc1ccc(N2CCC(Oc3ccc(-c4ccccc4)cc3)C2=O)cc1OCCF (centres unmarked) [Example 72]
6	COc1cc(N2CCC(Oc3ccc(-c4ccccc4F)cc3)C2=O)ccc1OCCS(C)(=O)=O (centres unmarked) [Example 67, 3-(2'-Fluorobiphenyl-4-yloxy)-1-(3-methoxy-4-(2-(methylsulfonyl)ethoxy)phenyl)pyrrolidin-2-one]
714	CCS(=O)(=O)C[C@@H](O)COc1ccc(N2CCC(Oc3ccc(OC(F)(F)F)cc3)C2=O)cc1C (some centres unmarked) [Example 94]
37	Cc1cc(N2CCC(Oc3ccc(-c4ccncc4)cc3)C2=O)ccc1OCC(C)(C)O (centres unmarked) [Example 89]
4	COc1cc(N2CC=C(Oc3ccc(C4CC4)cc3)C2=O)ccc1OCC(C)(O)CO (centres unmarked) [Example 119]
15	Cc1cc(N2CCC(Oc3ccc(OC(F)(F)F)cc3)C2=O)ccc1OCC(C)(C)O (centres unmarked) [Example 77]
22	Cc1cc(N2CCC(Oc3ccc(I)cc3)C2=O)ccc1OCC(C)(C)O (centres unmarked) [Example 85]
38	COc1cc(N2CCC(Oc3ccc(-c4ccc(F)cc4)cc3)C2=O)ccc1OC[C@@H](O)CS(C)(=O)=O (some centres unmarked) [Example 63]
13	COc1cc(N2CCC(Oc3ccc(-c4ccccc4)cc3)C2=O)ccc1OCCS(=O)(=O)CC(C)(C)O (centres unmarked) [Example 75]
25	Cc1cc(N2CC=C(Oc3ccc(OC(F)(F)F)cc3)C2=O)ccc1OCC(C)(C)O [Example 117]
9	COc1cc(N2CCC(Oc3ccc(-c4ccccc4)cc3)C2=O)ccc1OC[C@H](O)CS(C)(=O)=O (stereo partly drawn) [Example 58, 3-(Biphenyl-4-yloxy)-1-(4-((S)-2-hydroxy-3-(methylsulfonyl)propoxy)-3-methoxyphenyl)pyrrolidin-2-one]
5	Cc1cc(N2CCC(Oc3ccc(-c4cccc(F)c4)cc3)C2=O)ccc1OCCS(C)(=O)=O (centres unmarked) [Example 108]
3	COc1cc(N2CC[C@@H](Oc3ccc(C4CC4)cc3)C2=O)ccc1OCCS(C)(=O)=O [Example 71, (R)-3-(4-Cyclopropylphenoxy)-1-(3-methoxy-4-(2-(methylsulfonyl)ethoxy)phenyl)pyrrolidin-2-one]
